Results reported in patent US8354522B2, “Immunostimulatory oligoribonucleotides” (Coley Pharmaceutical GmbH, priority 2005, dated 2013).

Tests used:
Format in all cases: cell-based
Bovine PBMC = assay: Cytokine production by bovine PBMC (48 hours, ELISA); settings: 10 μg/ml (H.D.) and 2.5 μg/ml (L.D.)
Procedure: FIG. 11 is a set of bar graphs showing differences between TLR8 ORN (SEQ ID NO:13) and TLR7/8 ORN (SEQ ID NO:21). SEQ ID NO:5 ORN was used as a control. Bovine PBMC were incubated with either 10 μg/ml ORN (HD) or 2.5 μg/ml ORN (LD) for 48 hours. Supernatants were collected and analyzed by ELISA. FIGS. 11a-c show the level of IL-12, IFN-γ, and TNF-alpha, respectively.
The assay was repeated with a TLR8 ORN (SEQ ID NO:13), a TLR 7/8 ORN (SEQ ID NO:21) and a control ORN (SEQ ID NO:5) (Table 3) at both a high dose (H.D., 10 μg/ml) and a low dose (L.D., 2.5 μg/ml).

human TLR8 = target: T1, human TLR8 (Homo sapiens, UniProt Q9NR97); assay: NFκB-luciferase reporter in HEK-293 cells stably transfected with human TLR8; settings: HEK-293 with human TLR8, ORN complexed to DOTAP, 16 hours
T1 construct: expressed in transfected cells
T1 sequence (Q9NR97 27-1041): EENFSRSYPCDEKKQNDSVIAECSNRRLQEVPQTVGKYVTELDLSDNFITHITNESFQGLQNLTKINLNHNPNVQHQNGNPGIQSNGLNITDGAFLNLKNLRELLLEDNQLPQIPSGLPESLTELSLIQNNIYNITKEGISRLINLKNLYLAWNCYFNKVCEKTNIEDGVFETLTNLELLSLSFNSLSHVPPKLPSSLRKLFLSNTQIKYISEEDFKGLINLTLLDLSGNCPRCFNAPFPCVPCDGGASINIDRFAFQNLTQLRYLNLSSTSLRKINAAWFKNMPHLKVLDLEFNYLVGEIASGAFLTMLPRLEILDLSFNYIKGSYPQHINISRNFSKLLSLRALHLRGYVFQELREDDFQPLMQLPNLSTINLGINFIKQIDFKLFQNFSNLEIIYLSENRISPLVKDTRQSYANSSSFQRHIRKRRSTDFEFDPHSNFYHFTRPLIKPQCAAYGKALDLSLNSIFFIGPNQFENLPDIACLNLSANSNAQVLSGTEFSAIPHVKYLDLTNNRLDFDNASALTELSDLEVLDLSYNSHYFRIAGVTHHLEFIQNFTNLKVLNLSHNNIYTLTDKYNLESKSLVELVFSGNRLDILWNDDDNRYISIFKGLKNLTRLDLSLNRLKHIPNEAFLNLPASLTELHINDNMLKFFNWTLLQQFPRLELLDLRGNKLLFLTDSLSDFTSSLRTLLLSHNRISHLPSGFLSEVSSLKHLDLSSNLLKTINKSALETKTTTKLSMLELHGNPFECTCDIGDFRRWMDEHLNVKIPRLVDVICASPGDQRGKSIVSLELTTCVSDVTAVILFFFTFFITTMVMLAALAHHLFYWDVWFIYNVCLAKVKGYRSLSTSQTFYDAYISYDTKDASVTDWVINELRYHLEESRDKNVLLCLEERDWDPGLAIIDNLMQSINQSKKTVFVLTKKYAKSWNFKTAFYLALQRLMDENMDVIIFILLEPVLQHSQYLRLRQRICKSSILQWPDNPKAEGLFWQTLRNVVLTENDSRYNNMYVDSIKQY
Procedure: Stable-transfected HEK-293 cells with NFκB-luciferase read out reporter and human TLR8 were stimulated for 16 hours with indicated ORN. After 16 hours the supernatants were removed, the cells lysed and the luciferase activity or cytokine level was measured. FIGS. 9a and 9b show fold induction of NFκB-luciferase after stimulus.
Unresponsive HEK-293 cells were stably transfected with human TLR3 or TLR8 expression plasmid and NFκB-luciferase reporter gene construct. Cells were incubated with the indicated ORN sequences (10 μM complexed to 50 μg/ml DOTAP) or control stimuli (10 μM R-848, 50 μg/ml polyIC, 3.3 μM ODN 10103 or 50 μg/ml DOTAP) for 16 hours. NFκB-activation was measured by assaying luciferase activity. Results are given as fold induction above background (medium). One representative experiment of 6 independent repetitions is presented (FIG. 9a).
Stable-transfected HEK-293 cells expressing human TLR8 were stimulated with indicated concentrations of ORN complexed to DOTAP (50 μg/ml->1/3 dilution) or DOTAP alone (50 μg/ml->1/3 dilution) for 16 hours. NFκB activation was measured by assaying luciferase activity. Results are given as fold induction above background (medium). […]
Unresponsive HEK-293 cells were stably transfected with human TLR8 expression plasmid and NFκB-luciferase reporter gene construct. […] NFκB-activation was measured by assaying luciferase activity. […]

[1] = tested on: Splenocytes from 3 Sprague-Dawley rats; assay: TNF-alpha production by rat splenocytes (ELISA); settings: pooled rat splenocytes, ORN complexed to 62.5 μg/ml DOTAP with 1/5 dilution, 20 hours
Procedure: Splenocytes from 3 Sprague-Dawley rats were pooled and stimulated with indicated concentrations of SEQ ID NO:21, SEQ ID NO:13 (both complexed to 62.5 μg/ml DOTAP with 1/5 dilution), R-848 or DOTAP alone (62.5 μg/ml->1/5 dilution). Supernatants were harvested after 20 hours and TNF-alpha levels were measured by ELISA.

Substance | IFN-γ production (Bovine PBMC) | human TLR8 signaling (NFκB-luciferase fold induction) (human TLR8) | TNF-alpha production [1] | IL-12 production (Bovine PBMC) | TNF-alpha production (Bovine PBMC)
U*U*A*U*U*A*U*U*A*U*U*A*U*U*A*U*U*A*U*U (UUAUUAUUAUUAUUAUUAUU; chemistry not fully specified) [SEQ ID NO: 13] | stimulated production of IFN-γ | Stimulate Specific Human TLR8 Signaling in a Dose Dependent Manner | no TNF-alpha production | – | –
U*U*G*U*U*G*U*U*G*U*U*G*U*U*G*U*U*G*U*U (UUGUUGUUGUUGUUGUUGUU; listed as RNA, chemistry not fully specified) [SEQ ID NO: 21] | stimulated production of IFN-γ | Stimulate Specific Human TLR8 Signaling in a Dose Dependent Manner | resulted in TNF-alpha production | significant production of IL-12 and TNF-alpha | significant production of IL-12 and TNF-alpha
